According to the supplement of paper PMC10307832:

Legend:
Test in all cases: relative viability (nuclei count vs DMSO), 5 days (fraction); higher = more cells survive
[1] = compound: COc1cc2nccc(Oc3ccc(NC(=O)C4(C(=O)Nc5ccc(F)cc5)CC4)cc3)c2cc1OC [Cabozantinib] + CC(C)C[C@H](NC(=O)[C@H](Cc1ccccc1)NC(=O)c1cnccn1)B(O)O [Bortezomib] (partner 0.002 µM)
Outline: (§1)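 Relative viability was taken as the ratio of nuclei in treated wells to nuclei in vehicle wells. Lung cancer cell lines in 1536-well plates received compounds by pin tool one day after seeding, either one drug alone or a fixed anchor-drug dose plus five library-drug doses (not always all listed) in √10 steps. Nuclei were counted on 4× images after 5 days of treatment, and values are medians of duplicate plates.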

Zosuquidar + Foretinib = compound: O[C@@H](COc1cccc2ncccc12)CN1CCN([C@@H]2c3ccccc3[C@@H]3[C@H](c4ccccc42)C3(F)F)CC1 [Zosuquidar] + COc1cc2c(Oc3ccc(NC(=O)C4(C(=O)Nc5ccc(F)cc5)CC4)cc3F)ccnc2cc1OCCCN1CCOCC1 [Foretinib] (partner 0.25 µM)
Outline: as §1

Zosuquidar + Lapatinib = compound: O[C@@H](COc1cccc2ncccc12)CN1CCN([C@@H]2c3ccccc3[C@@H]3[C@H](c4ccccc42)C3(F)F)CC1 [Zosuquidar] + CS(=O)(=O)CCNCc1ccc(-c2ccc3ncnc(Nc4ccc(OCc5cccc(F)c5)c(Cl)c4)c3c2)o1 [Lapatinib] (partner 2 µM)
Outline: as §1

Zosuquidar + Crizotinib = compound: O[C@@H](COc1cccc2ncccc12)CN1CCN([C@@H]2c3ccccc3[C@@H]3[C@H](c4ccccc42)C3(F)F)CC1 [Zosuquidar] + C[C@@H](Oc1cc(-c2cnn(C3CCNCC3)c2)cnc1N)c1c(Cl)ccc(F)c1Cl [Crizotinib] (partner 1 µM)
Outline: as §1

Cell Line	relative viability ([1]; first compound 0.02 µM)	relative viability ([1]; first compound 0.06325 µM)	relative viability ([1]; first compound 0.2 µM)	relative viability ([1]; first compound 0.6325 µM)	relative viability ([1]; first compound 2 µM)	relative viability (Zosuquidar + Foretinib; first compound 0.01 µM)	relative viability (Zosuquidar + Foretinib; first compound 0.03162 µM)	relative viability (Zosuquidar + Foretinib; first compound 0.1 µM)	relative viability (Zosuquidar + Foretinib; first compound 0.3162 µM)	relative viability (Zosuquidar + Foretinib; first compound 1 µM)	relative viability (Zosuquidar + Lapatinib; first compound 0.01 µM)	relative viability (Zosuquidar + Lapatinib; first compound 0.03162 µM)	relative viability (Zosuquidar + Lapatinib; first compound 0.1 µM)	relative viability (Zosuquidar + Lapatinib; first compound 0.3162 µM)	relative viability (Zosuquidar + Lapatinib; first compound 1 µM)	relative viability (Zosuquidar + Crizotinib; first compound 0.01 µM)	relative viability (Zosuquidar + Crizotinib; first compound 0.03162 µM)	relative viability (Zosuquidar + Crizotinib; first compound 0.1 µM)	relative viability (Zosuquidar + Crizotinib; first compound 0.3162 µM)	relative viability (Zosuquidar + Crizotinib; first compound 1 µM)
NCI-H1437	0.533	0.635	0.549	0.565	0.64	1.28	1.24	1.16	1.3	1.31	0.825	0.669	0.747	0.908	0.792	0.868	0.994	0.92	0.911	0.897
RERF-LC-KJ	1.11	1.04	1.26	1.05	1.06	0.895	0.926	0.861	0.923	0.844	0.786	0.902	0.841	0.943	0.811	0.81	0.799	0.824	0.873	0.806
NCI-H1651	0.883	1.03	0.891	0.904	0.985	0.763	0.845	0.703	0.863	0.778	0.866	0.902	0.865	1.02	0.943	0.849	0.965	0.854	0.869	0.87
IA-LM	0.912	0.782	0.78	0.998	0.958	1.09	1.23	1.26	1.34	1.17	–	0.713	0.802	1.01	0.881	–	0.804	1.05	1.03	0.861
NCI-H1734	1.04	1.06	0.987	0.891	0.951	0.816	0.868	0.775	0.938	0.817	1.03	1.02	1.1	1.07	1.13	0.64	0.566	0.662	0.72	0.705
